Test [1] concerns the target T1, α5β1 integrin (Homo sapiens, UniProt P05556+P08648). Briefly: In vitro binding assay: inhibition of binding of α5β1 integrin to fibronectin fragment Fn9-10 (Origen electrochemiluminescence). The note with it: human a5b1 purified from placenta; biotinylated Fn9-10 ligand. As to the method:
The assay determined the ability of compounds to inhibit binding of a5 μl integrin to a cognate ligand, a fragment of human fibronectin. The assay used Origen technology (IGEN International) to measure the compound activity. Briefly, (α5β1 integrin was coated onto epoxy-paramagnetic beads (Dynal Biotech UK, Bromborough, Wirral, CH62 3QL, UK, Catalogue No 143.02) and biotinylated-fibronectin ligand was coupled to strepatividin labelled BV-Tag-NHS-Ester (BioVeris Corporation, Witney, Oxfordshire, OX28 4GE, UK, Catalogue No JSF396). The ruthenium-labelled BV-Tag emits a electrochemiluminescence signal upon stimulation which is detected by the Origen reader. Thus, interaction of integrin and ligand causes association of bead and tag and the resulting electrochemiluminescence signal reflects the level of integrin interaction with fibronectin.
12 μg of human a5 μl purified from placenta (Chemicon, Chandlers Ford, Hampshire, SO53 4NF, UK, Catalogue No CC1055-K) was coated onto surface-activated 3 mg of epoxy-paramagnetic beads in PBS and 1M ammonium sulfate following manufacturers instructions at 4° C. for 24 hours. Coated beads were then washed into Assay Buffer (25 mM Hepes, 150 mM NaCl, 1 mM MgCl, 1 mM MnCl, 0.1% Tween, pH7.4) to give a final concentration of 20 μg of α5β1/ml. Immediately prior to the assay, the beads were further diluted ×40 fold in Assay Buffer to give a concentration of 0.5 μg α5β1/ml.
A DNA fragment encoding the domains 9-10 (amino-acids 1325-1509) of human fibronectin (Swiss-Prot Acession No. P02751) was isolated from cDNA libraries using standard molecular biology and PCR cloning techniques. The cDNA fragment was sub-cloned into a pT73.3 expression vector containing a GST-epitope tag (developed at AstraZeneca; Bagnall et al., Protein Expression and Purification, 2003, 27: 1-11). Following expression in E. coli, the expressed protein, termed Fn9-10, was purified using the GST-tag using standard purification techniques. The recombinant Fn9-10 was subsequently biotinylated using a EZ-link Sulfo-NHS-LC-Biotinylation kit (Perbio Science UK Ltd., Cramlington, Northumberland, NE23 1WA, UK, Catalogue No. 21335) and made to give a final concentration of approximately 1 mg/ml. BV-Tag-NHS-Ester was labelled with streptavidin by incubation at room temperature following manufacturers instructions and buffer-exchanged into PBS to give a concentration of 0.5 mg/ml. […]
For the assay, […] of a5b1-bead suspension and 40 μl of the Fn9-10/BV-Tag preincubated solution were added to each well containing 20 μl of compound or control solution. Assay plates were then incubated at room temperature for a minimum of 6 hours before being analysed on the Origen plate reader. […]

In test [2] the target is T1, α5β1 integrin. Briefly: In vitro cell adhesion assay: α5β1 integrin mediated adhesion of K562 cells to fibronectin fragment Fn9-10. Also on record: α5β1 integrin mediated adhesion of K562 cells; host or cells: K562 human erythroleukaemia cells. As to conditions: K562 cells on Fn9-10 coated plates; 0.2 mM MnCl; read-out: b) Cell Adhesion Assay. The format is cell-based. An excerpt:
The assay determined the ability of compounds to inhibit the α5β1 integrin mediated adhesion of K562 cells to the ligand, a fragment of human fibronectin. The human K562 erythroleukaemia cell line (LGC Promochem, Teddington, Middlesex, UK, Catalogue No. CCL-243) was routinely maintained in RPMI 1640 medium (Sigma-Aldrich Company Ltd, Gillingham, Dorset SP8 4XT, Catalogue No. R0883) containing 10% heat-inactivated foetal calf serum (PAA lab GmbH, Pasching, Austria Catalogue No. PAA-A15-043) and 1% glutamax-1 (Invitrogen Ltd. Paisley, UK Catalogue No. 35050-038) at 37° C. with 5% CO2 at densities between 1×10^5 and 1×10^6 cells/ml.
A DNA fragment encoding the domains 9-10 (amino-acids 1325-1509) of human fibronectin (Swiss-Prot Acession No. P02751) was isolated from cDNA libraries using standard molecular biology and PCR cloning techniques. The cDNA fragment was sub-cloned into a pT7#3.3 expression vector containing a GST-epitope tag (developed at AstraZeneca; Bagnall et al., Protein Expression and Purification, 2003, 27: 1-11) and the fragment termed Fn9-10. Following expression in E. coli, the expressed protein was purified using the GST-tag using standard purification techniques.
For adhesion assay, a 96-well flat bottomed plate (Greiner Bio one ltd., Gloucester GL10 3SX Catalogue No. 655101) was coated overnight at 4° C. with 100 μl of 20 μg/ml Fn9-10 ligand in Dulbecco's PBS (Gibco#14190-94). The plate was then washed twice with 200 μl of PBS and blocked with 100 μl of 3% BSA (SigmaA7888) in PBS for 1 hour at 37° C. The plates were then washed again 3 times with 200 μl of PBS and left empty.
Test compounds were prepared as 10 mM stock solutions in DMSO (Sigma-Aldrich Company Ltd, Gillingham, Dorset SP8 4XT Catalogue No. 154938) and serially diluted with HBSS (Hanks Buffered Salt solution (Gibco Catalogue No. 14170-088)/2% DMSO to give a range of test concentrations at twice required final concentration. Aliquots (50 μl) of each compound dilution were placed into each well of the Fn9-10 coated plates. Each plate also contained control wells: maximum adhesion signal was created using wells containing 50 μl HBSS/2% DMSO and minimum signal corresponding to no adhesion was created using wells containing 50 μl HBSS/2% DMSO/20 mM EDTA (Sigma Catalogue No. E7889).
The K562 cells were cultured to ˜1×10^6 cells/ml and each culture suspension pooled. Cells were centrifuged at 1200 rpm for 2 mins and the pellets washed with HBSS followed by HBSS/50 mM HEPES (Sigma Catalogue No. H0887). Cell pellets were pooled and resuspended in HBSS/0.4 mM manganese chloride/50 mM HEPES (MnCl; Sigma Catalogue No. M1787) to give a final concentration of 4×10^6 cells/ml.
The assay was initiated by the addition of 50 μl of cell suspension into each coated well (200,000 cells/well), thus resulting in final desired compound concentration and a final MnCl concentration of 0.2 mM. The plates were incubated for 45 minutes at 37° C. 5% CO2. After this time, the solution was flicked off as waste and the remaining cell layer carefully washed twice with 200 μl of PBS and then fixed with 200 μl of 100% ethanol for 30 minutes.
After fixation, the ethanol was flicked off to waste and 100 μl of 0.1% Crystal violet stain was added to each well and incubated at ambient temperature for 15 minutes. Excess stain was removed by rinsing ˜3 times under cold slow running water. The plates were blotted over tissue then solubilised by adding 50 μl of 1% Triton X100 (Sigma Catalogue No. T9284) and shaking at 500 rpm for 30 mins on plate shaker. Finally, 100 μl of deionised water was added to each well and the absorbance was determined at 590 nm on a spectrophotometer. The minimum value was subtracted from all values and the absorbance signal was plotted against compound concentration to generate IC50 data.

Each structure is given as a SMILES string.

T1 sequence (P08648 42-894 limits assumed): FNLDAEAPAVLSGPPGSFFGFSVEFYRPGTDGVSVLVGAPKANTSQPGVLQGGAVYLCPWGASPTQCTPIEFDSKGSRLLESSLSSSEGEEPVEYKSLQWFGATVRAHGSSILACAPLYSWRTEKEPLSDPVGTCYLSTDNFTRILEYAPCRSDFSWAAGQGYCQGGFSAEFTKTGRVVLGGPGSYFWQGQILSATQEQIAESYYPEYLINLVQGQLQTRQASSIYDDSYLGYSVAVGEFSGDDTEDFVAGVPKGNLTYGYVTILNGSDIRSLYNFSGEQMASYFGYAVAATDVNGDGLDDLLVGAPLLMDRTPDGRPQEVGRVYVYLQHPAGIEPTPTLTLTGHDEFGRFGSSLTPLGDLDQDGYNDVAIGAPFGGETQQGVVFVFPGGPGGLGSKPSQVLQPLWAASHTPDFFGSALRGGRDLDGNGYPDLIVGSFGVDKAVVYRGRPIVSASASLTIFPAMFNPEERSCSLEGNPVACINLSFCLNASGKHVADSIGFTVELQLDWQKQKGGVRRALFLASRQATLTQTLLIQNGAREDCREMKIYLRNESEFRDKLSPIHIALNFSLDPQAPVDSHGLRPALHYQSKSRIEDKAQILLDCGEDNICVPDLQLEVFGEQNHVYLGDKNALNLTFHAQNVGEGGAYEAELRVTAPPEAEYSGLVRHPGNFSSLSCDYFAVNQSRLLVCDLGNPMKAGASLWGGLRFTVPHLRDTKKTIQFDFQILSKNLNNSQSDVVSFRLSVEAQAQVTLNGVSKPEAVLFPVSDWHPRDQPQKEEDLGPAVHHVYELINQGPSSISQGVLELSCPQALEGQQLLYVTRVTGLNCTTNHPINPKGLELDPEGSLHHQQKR
T1 sequence (P08648 895-1049 partner limits assumed): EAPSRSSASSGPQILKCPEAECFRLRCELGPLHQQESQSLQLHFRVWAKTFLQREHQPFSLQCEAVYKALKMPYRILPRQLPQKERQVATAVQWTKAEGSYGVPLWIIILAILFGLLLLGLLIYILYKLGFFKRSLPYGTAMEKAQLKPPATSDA
T1 sequence (P05556 21-798): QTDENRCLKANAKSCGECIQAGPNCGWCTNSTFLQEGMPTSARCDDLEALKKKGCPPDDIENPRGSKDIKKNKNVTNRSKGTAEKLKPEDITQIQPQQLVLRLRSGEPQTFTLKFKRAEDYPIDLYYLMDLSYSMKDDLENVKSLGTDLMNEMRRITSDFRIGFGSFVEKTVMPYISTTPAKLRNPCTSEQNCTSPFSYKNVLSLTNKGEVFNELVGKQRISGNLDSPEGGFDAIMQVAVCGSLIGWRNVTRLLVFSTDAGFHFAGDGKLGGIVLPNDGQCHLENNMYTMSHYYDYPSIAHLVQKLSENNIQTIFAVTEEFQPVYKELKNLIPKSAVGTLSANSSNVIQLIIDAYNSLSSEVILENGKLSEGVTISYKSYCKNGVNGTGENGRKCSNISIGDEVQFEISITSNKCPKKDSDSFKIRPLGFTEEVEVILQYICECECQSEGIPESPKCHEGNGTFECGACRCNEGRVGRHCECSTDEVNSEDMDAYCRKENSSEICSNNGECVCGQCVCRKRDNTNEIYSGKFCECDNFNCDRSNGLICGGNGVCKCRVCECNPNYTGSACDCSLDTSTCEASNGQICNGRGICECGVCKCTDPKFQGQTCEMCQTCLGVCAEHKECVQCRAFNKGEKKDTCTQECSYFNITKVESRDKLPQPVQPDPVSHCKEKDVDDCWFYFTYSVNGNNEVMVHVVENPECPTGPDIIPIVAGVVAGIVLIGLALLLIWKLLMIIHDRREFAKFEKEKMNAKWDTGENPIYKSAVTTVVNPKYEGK

For the molecule `CS(=O)(=O)N1CC=C(c2ccc(C[C@H](NC(=O)c3c(Cl)cccc3Cl)C(=O)O)nc2)CC1`, the IC50 is 24.7 µM on α5β1 integrin [1] and 70.5 µM on α5β1 integrin [2].

As for `CCCS(=O)(=O)N1CC=C(c2ccc(C[C@H](NC(=O)c3c(Cl)cccc3Cl)C(=O)O)nc2)CC1`, the IC50 is 13.9 µM at α5β1 integrin [1] and 7 µM on α5β1 integrin [2].

`O=C(N[C@@H](Cc1ccc(C2=CCN(C(=O)c3cccc(F)c3)CC2)cn1)C(=O)O)c1c(Cl)cccc1Cl`: the IC50 came out at 7.2 µM on α5β1 integrin [1] and 48 µM at α5β1 integrin [2].

Consider `O=C(N[C@@H](Cc1ccc(C2=CCN(Cc3ccc(F)cc3)CC2)cn1)C(=O)O)c1c(Cl)cccc1Cl`, for which the figures for the IC50 at α5β1 integrin [1] and on α5β1 integrin [2] were 6 µM and 13.2 µM, respectively.

For the molecule `CC(=O)NCC(=O)N1CC=C(c2ccc(C[C@H](NC(=O)c3c(Cl)cccc3Cl)C(=O)O)nc2)CC1` [3-[1′-(N-acetylglycyl)-1′,2′,3′,6′-tetrahydro-3,4′-bipyridin-6-yl]-N-(2,6-dichlorobenzoyl)-L-alanine], the IC50 at α5β1 integrin [2] was no less than 100 µM.

`O=C(N[C@@H](Cc1ccc(N2CCN(S(=O)(=O)c3ccccc3)CC2)cn1)C(=O)O)c1c(Cl)cccc1Cl` [N-(2,6-dichlorobenzoyl)-3-{5-[4-(phenylsulfonyl)piperazin-1-yl]pyridin-2-yl}-L-alanine]: the IC50 at α5β1 integrin [2] is no less than 100 µM.

The values are drawn from patent publication US20090111828A1, “L-ALANINE DERIVATIVES” (ASTRAZENECA AB, priority 2005, published 2009).
